From patent US20230149420A1, “ANTI-INFLAMMATORY IMMUNOENHANCER” (SCENT SCIENCE INTERNATIONAL INC., priority 2020, published 2023)

Assays:
[1] = system: neutrophils in the peripheral blood; assay: flow cytometry of neutrophils in peripheral blood, 2MT i.p./odor, corticosterone (Example 3); assay type: in vivo, C57/BL6 mice
Procedure: (§1) About 3-month-old C57/BL6 mice were intraperitoneally administered with 200 μl of saline (control) or 1% 2MT solution (dissolved in saline). Blood was collected 16 hr later, and the number of various leukocytes in the peripheral blood was measured by a flow cytometry method by peroxidase staining and a two-angle laser flow cytometry method. The ratios of neutrophils and monocytes in the peripheral blood under respective conditions that were clarified by the measurement are shown.

[2] = system: neutrophils in the peripheral blood; assay: number of neutrophils in peripheral blood, Siemens Advia 120 (Examples 4, 5); assay type: in vivo, C57/BL6 mice; details: 200 μl of 1% solution i.p., blood 16 hr later, vs saline
Procedure: About 3-month-old C57/BL6 mice were intraperitoneally injected with 200 μl of saline (control) or 1% solution of respective compounds (dissolved in saline). Blood was collected 16 hr later, and the number of neutrophils in the peripheral blood was measured using Siemens Advia 120.

[3] = blood stress hormone (Corticosterone) after 2MT stimulation; assay type: in vivo
[4] = system: peripheral blood mononuclear cells (PBMC); assay: scRNAseq gene expression changes in PBMC cell clusters, control vs 2MT (Example 2); assay type: in vivo, C57/BL6 mice; details: 2MT i.p. vs control, 16 hr
Procedure: About 3-month-old C57/BL6 mice were intraperitoneally administered with 200 μl of saline (control) or 1% 2MT solution (dissolved in saline). Blood was collected 16 hr later, and peripheral blood mononuclear cells (PBMC) were separated using Ficoll Paque PREMIUM 1.084 (GE Healthcare). A single cell RNA cDNA library was prepared from the separated cells by using the 10× Chromium preparation system, Chromium Single Cell 3′ Library & Gel Bead Kit v3, and sequencing was performed using the illumina HiSeq. The obtained scRNAseq data was analyzed according to the method shown in Non-Patent Literatures 4 and 5. The results of clustering using the gene expression of each cell as an index were visualized by tSNE, and the results are shown in FIG. 1A-C. […] Based on the data of scRNAseq performed in Example 1, the comparison results of the changes in the expression of each gene in the cells present in each cluster between the control conditions and the 2MT administration conditions are shown in FIG. 2. The genes whose expression changed by 2MT stimulation are shown on the top of the table, and the functional categories of the genes are shown above them. The numbers in the table indicate gene expression levels, and the density of shading indicates the degree of increase in gene expression.

[5] = system: monocytes in the peripheral blood; assay: number of monocytes in peripheral blood, Siemens Advia 120 (Examples 6, 7); assay type: in vivo, C57/BL6 mice; details: 200 μl of 1% solution i.p., blood 16 hr later, vs saline
Procedure: About 3-month-old C57/BL6 mice were intraperitoneally injected with 200 μl of saline (control) or 1% solution of respective compounds (dissolved in saline). Blood was collected 16 hr later, and the number of monocytes in the peripheral blood was measured using Siemens Advia 120.
About 3-month-old C57/BL6 mice were intraperitoneally injected with 200 μl of saline (control) or 1% allyl isothiocyanate solution (dissolved in saline). Blood was collected 16 hr later, and the number of monocytes in the peripheral blood was measured using Siemens Advia 120.

[6] = system: neutrophils in the whole blood cells; assay: ratio of neutrophils in whole blood cells, Siemens Advia 120 (Examples 12, 13); assay type: in vivo, C57/BL6 mice; details: 200 μl of 1% solution i.p., blood 16 hr later, vs saline
Procedure: About 3-month-old C57/BL6 mice were intraperitoneally injected with 200 μl of saline (control) or 1% solution of respective compounds (dissolved in saline). Blood was collected 16 hr later, and the ratio of neutrophils in the whole blood cells was measured using Siemens Advia 120.

[7] = system: peripheral blood mononuclear cells (PBMC); assay: scRNAseq classification of PBMC after intraperitoneal 2MT (Example 1); assay type: in vivo, C57/BL6 mice; details: 200 μl of 1% 2MT solution i.p., blood 16 hr later
Procedure: About 3-month-old C57/BL6 mice were intraperitoneally administered with 200 μl of saline (control) or 1% 2MT solution (dissolved in saline). Blood was collected 16 hr later, and peripheral blood mononuclear cells (PBMC) were separated using Ficoll Paque PREMIUM 1.084 (GE Healthcare). A single cell RNA cDNA library was prepared from the separated cells by using the 10× Chromium preparation system, Chromium Single Cell 3′ Library & Gel Bead Kit v3, and sequencing was performed using the illumina HiSeq. The obtained scRNAseq data was analyzed according to the method shown in Non-Patent Literatures 4 and 5. The results of clustering using the gene expression of each cell as an index were visualized by tSNE, and the results are shown in FIG. 1A-C.

[8] = system: monocytes in the whole blood cells; assay: ratio of monocytes in whole blood cells, Siemens Advia 120 (Examples 10, 11); assay type: in vivo, C57/BL6 mice; details: 200 μl of 1% solution i.p., blood 16 hr later, vs saline
Procedure: About 3-month-old C57/BL6 mice were intraperitoneally injected with 200 μl of saline (control) or 1% solution of respective compounds (dissolved in saline). Blood was collected 16 hr later, and the ratio of monocytes in the whole blood cells was measured using Siemens Advia 120.
About 3-month-old C57/BL6 mice were intraperitoneally injected with 200 μl of saline (control) or 1% allyl isothiocyanate solution (dissolved in saline). Blood was collected 16 hr later, and the ratio of monocytes in the whole blood cells was measured using Siemens Advia 120.

[9] = system: monocytes in the peripheral blood; assay: flow cytometry of monocytes in peripheral blood, 2MT i.p./odor, corticosterone (Example 3); assay type: in vivo, C57/BL6 mice
Procedure: as §1

[10] = intraperitoneal injection vs saline i.p., blood 16 hr later

CC1=NCCS1 [2-Methyl-2-thiazoline]
number of neutrophils [1, 10]: increased
number of neutrophils ([1]; odor stimulation vs no odor): increased
neutrophils in the peripheral blood (number) [2]: increase
blood stress hormone (Corticosterone) [3]: increases
expression levels of Ccr1, Ccr2, Ccr12, and Cxc12 (genes that promote blood cell migration) [4]: increased
expression levels of Lyz2, F13a1, Cd14, Chil3, and Hp (biological defense response) [4]: increased
expression levels of Nfkbia, Nfkbiz, and Socs3 (suppressors of NF-κB and JAK-STAT pathways) [4]: increased
number of monocytes in the peripheral blood [5]: increase
ratio of neutrophils in the whole blood cells [6]: increases
numbers of monocytes (Mono 1, Mono 2) and dendritic cells (DC) ([7]; vs saline): drastically increases
dendritic cells in PBMC ([7]; control 0.83%): 2.2%
percentage of monocytes in PBMC ([7]; control 3.7%): 23.7%
ratio of monocytes in the whole blood cells [8]: increases
number of monocytes [9, 10]: increased
number of monocytes ([9]; odor stimulation vs no odor): increased
